# Patent publication US6384029B1, “Optically active pyridyl-4h-1,2,4-oxdadiazine derivative and its use in the treatment of vascular diseases” (Biorex Kutató Fejlesztö RT., priority 1998, dated 2002)
# Marks after values point to notes of the source that are not given here.
# Columns and labels:
# [1] = test system: coronary flow responses to serotonin (5-HT) in hearts from spontaneously hypertensive (SH) rats; assay: Langendorff perfused rat heart: endothelial function before and after ischemia; details: for postischemic coronary response in percentage of the preischemic vasodilator response: 10^−6 M drug in perfusate, 10^−7 M 5-HT, 10 min global ischemia, SH rat heart
# Experimental: Langendorff Perfused Rat Heart
# Protocol for Assesment of Endothelial Function Before and After Ischemia
# Rats were heparinised with i.p. heparin sodium (2500 IU) and anesthetized with i.p. pentobarbital (60 mg/kg). Hearts from spontaneously hypertensive (SH) rats were quickly removed and immediately perfused via the aorta using a gravity-flow, non-recirculating Langendorff apparatus (Experimetria Ltd) at a constant perfusion pressure (100 cm H2O) with Krebs-Henseleit Solution (KHS) containing in mM: NaCl 120; KCl 5.4; CaCl2 2.7; MgCl2 1.1; NaHCO3 24; D-glucose 11. The KHS was gassed with carbogen (95% O2; 5% CO2) resulting pH 7.4.
# We used the so-called non-working heart model and measured the mean coronary flow by a transonic flow meter (Type T206, Transonic Systems Inc.). The flow probe was placed above the aortic cannula. Coronary flow was monitored throughout the experiment and registered by a potentiometric recorder. Hearts were allowed to beat spontaneously throughout the experiment. After 20-30 min of equilibration period the coronary flow reached a baseline value.
# Endothelial function was assessed through observations of preischemic and postischemic coronary flow responses to serotonin (5-HT). In response to serotonin, the progress of dilatation of coronary artery depends on the soundness of the endothelium.
# The Langendorff infusion was switched to the another column containing additional 10^−7 M serotonin (5-HT, Sigma Chemical Co.). The ensuing dilatation of coronary artery was monitored and when the steady state had been reached the 5-HT was washed out by switching back to the ordinary KHS. The heart was then subjected to a global ischemia for 10 min by the clamping the aortic cannula. At the end of the ischemic period, the heart was reperfused. When the baseline coronary flow had been reestablished, the heart was again subjected to the same protocol of sequential infusion of 5-HT and KHS as in the preischemic period. Control hearts were perfused with pure KHS and the hearts of the another three groups were perfused with KHS containing additional 10^−6 M racemic 5,6-dihydro-5-(1-piperidinyl)-methyl-3-(3-pyridyl)4H-1,2,4-oxadiazine, (−)-5,6-dihydro-5-(1-piperidinyl)-methyl-3-(3-pyridyl)4H-1,2,4-oxadiazine and (+)-5,6-dihydro-5-(1-piperidinyl)-methyl-3-(3-pyridyl)4H-1,2,4-oxadiazine, respectively. 20-30 min after the onset of hemodynamic stability, perfusion of the drugs were initiated and continued until reperfusion with the exception of the occlusion period.
# The potischemic coronary responses are expressed in percentage of the preischemic vasodilator responses.
# rabbit papillary muscle = assay: Contractile force of heart: rabbit right ventricular papillary muscle; details: for amplitude % (contractile force, % of control): cumulative addition, 15-20 min incubation; for inotropic effect (in words): between 10^−6 and 10^−4 molar range
# Excerpt: Effect of racemic 5,6-dihydro-5-(1-piperidinyl)-methyl-3-(3-pyridyl)4H-1,2,4-oxadiazine and its (−) and (+) enantiomers on the contractile force of heart
# New Zealand white rabbits (male, 2-3 kg) were killed by a blow on the nape. The hearts were rapidly removed after opening the chest. Right ventricular papillary muscles were dissected and mounted in organ holding chambers and pre-tension of 0.5 g was applied. The superfusate contained (in mM) 120 NaCl, 5.4 KCl, 2.7 CaCl2, 1.1 MgCl2, 1.1 NaH2PO4, 24.0 NaHCO3 and 11.0 glucose. The pH of this superfusate was 7.4 at 37° C. when gassed with 95% O2 and 5% CO2. Stimulation and measurements were carried out by Isosys System of Experimetria, Budapest, Hungary. The preparations were paced by 1-ms-wide isolated constant voltage at a cycle length of 1000 ms. The amplitudes of the pulses were equal to twice as high as the diastolic threshold value, delivered through a pair of platinum electrodes. Before the start of the measurements the preparation was equilibrated for 60 min to allow the stabilization of its mechanical parameters. The drugs were added to the organ bath cumulatively, without washing out. Period of the incubation was 15-20 min. Measured parameters were: resting force (mg) and changes in the amplitude of contractile force (mg) which was expressed in % of the control.
# [2] = test system: spontaneously hypertensive rats; assay: Myocardial infarction in spontaneously hypertensive rats (coronary occlusion/reperfusion); assay type: in vivo, rat; details: SH rats; for Survival (%) / Infarcted area (%): oral 6 hours before occlusion (100 mg/kg), 1 h occlusion, 1 h reperfusion; for Infarcted area (%): percentage of left ventricle
# Experimental: Myocardial Infarction in Spontaneously Hypertensive Rats
# Myocardial ischemia was induced by a temporary occlusion of the main left coronary artery, according to Griswold et al (J. Pharmacol. Methods 1988, 20: 225-235). SH rats were anaesthetized with sodium pentobarbital (60 mg/kg i.p.). After tracheotomy, the animals were ventilated with room air by a respirator for small rodents (model: Harvard 552), with a stroke volume of 1,5-2 ml/100 g and a rate of 55 strokes/min to maintain normal pO2, pCO2 and pH parameters. The right carotid artery was catheterized and connected to a pressure transducer (P236B Stetham) for the measurement of systemic arterial blood pressure (BP) by means of a preamplifier (Hg-O2D Experimetria®). Heart rate (HR) was measured by a cardiotachometer (HR-01, Experimetria®). The electrocardiogram (ECG standard lead III) was recorded on a devices recorder (ER- 14, Micromed®) by means of subcutaneous steel needle electrodes. The chest was opened by a left thoracotomy and the heart was exteriorized by a gentle pressure on the right side of the rib cage. A 4/0 silk ligature was quickly placed under the main left coronary artery. The heart was replaced in the chest and the animal left to recover. Rectal temperature was monitored and was maintained constant at 37° C. The experiment was initiated with a 15 min stabilization period during which the observation of a sustained blood pressure less than 70 mmHg and/or the occurrence of arrhythmias lead to exclusion. Myocardial ischemia was induced with coronary artery occlusion for 1 h and reperfusion allowed for 1 hour. The drugs were administered orally 6 hours before occlusion.
# Quantification of Myocardial Infarction
# At the end of experiment, the heart was quickly removed. The left ventricle was then sliced into 2 mm thick sections parallel to the atrioventricular groove. The slices were incubated in a 0.1% solution of p-Nitroblue Tetrazolium (NBT) grade III, pH 7,4 for 15 min. The non-infarcted area was colored blue due to formation of a precipitate that results from reaction of NBT with dehydrogenase enzymes. Loss of these enzymes in the infarcted myocardium prevents the formation of the precipitate; thus, the infarcted area within the risk region remains pale yellow. The necrotic area was determined using computerized image analysis (COLIM, Pictron Kft), and was expressed as a percentage of the left ventricle.
# [3] = acute single oral 100 mg/kg 6 hours before occlusion
Structure (SMILES),postischemic coronary response in percentage of the preischemic vasodilator response [1],"amplitude % (contractile force, % of control) (rabbit papillary muscle; 10^−4 M)","amplitude % (contractile force, % of control) (rabbit papillary muscle; 10^−5 M)","amplitude % (contractile force, % of control) (rabbit papillary muscle; 10^−6 M)",inotropic effect (in words) (rabbit papillary muscle),Survival (%) [2],Infarcted area (%) [2],"endothelial function after ischemia (in words) ([1]; 10^−6 M, 10 min of global ischemia)","myocardial infarct size (in words) [2, 3]","survival rate (in words) [2, 3]"
"c1cncc(C2=NOCC(CN3CCCCC3)N2)c1 (racemic) [racemic compound, 5,6-dihydro-5-(1-piperidinyl)-methyl-3-(3-pyridyl)4H-1,2,4-oxadiazine, reference compound]",63.08 ± 11.7%,83.7 ± 3.3 %,87.1 ± 3.5 %,92.6 ± 5.08%,negative inotropic effect,70.0%,27.2 ± 5.8 %,–,–,–
"c1cncc(C2=NOCC(CN3CCCCC3)N2)c1 (single isomer, unassigned; (-)) [(−) enantiomer, (−)-5,6-dihydro-5-(1-piperidinyl)-methyl-3-(3-pyridyl)4H-1,2,4-oxadiazine]",88.41 ± 10.9%,142.5 ± 4.8 %,132.8 ± 5.0 %,126.6 ± 5.3 %,positive inotropic effect,100.0** %,7.1 ± 2.5 %,preserved endothelial function,significantly reduced myocardial infarct size,increased survival rate
"c1cncc(C2=NOCC(CN3CCCCC3)N2)c1 (single isomer, unassigned; (+)) [(+) enantiomer, (+)-5,6-dihydro-5-(1-piperidinyl)-methyl-3-(3-pyridyl)4H-1,2,4-oxadiazine]",49.78 ± 9.9%,78.4 ± 5.0 %,79.5 ± 5.6 %,90.1 ± 3.5%,negative inotropic effect,75.0%,34.5 ± 4.6%,–,–,–
